We go through two compounds from patent EP4467141A1, “PYRAZOLO-QUINOLINES AS SELECTIVE INHIBITORS OF GENOTOXIC STRESS-INDUCED IKK/NF- KB PATHWAYS FOR CANCER THERAPY” (Max-Delbrück-Centrum für Molekulare Medizin in der …, priority 2023, dated 2024).

Common to all, as to assay: Kinase panel study
Assay type in all cases: biochemical
Details in all cases: read-out: Percentage of inhibition; for inhibition at 1 µM: 1000nM; for inhibition at 10 µM: 10000nM

For experiment [1], the target named is T1, PRKD2 (PKD2) (Homo sapiens, UniProt Q9BZL6).
T1 construct: purchased Thermo Fisher Scientific
T1 sequence (Q9BZL6 1-878): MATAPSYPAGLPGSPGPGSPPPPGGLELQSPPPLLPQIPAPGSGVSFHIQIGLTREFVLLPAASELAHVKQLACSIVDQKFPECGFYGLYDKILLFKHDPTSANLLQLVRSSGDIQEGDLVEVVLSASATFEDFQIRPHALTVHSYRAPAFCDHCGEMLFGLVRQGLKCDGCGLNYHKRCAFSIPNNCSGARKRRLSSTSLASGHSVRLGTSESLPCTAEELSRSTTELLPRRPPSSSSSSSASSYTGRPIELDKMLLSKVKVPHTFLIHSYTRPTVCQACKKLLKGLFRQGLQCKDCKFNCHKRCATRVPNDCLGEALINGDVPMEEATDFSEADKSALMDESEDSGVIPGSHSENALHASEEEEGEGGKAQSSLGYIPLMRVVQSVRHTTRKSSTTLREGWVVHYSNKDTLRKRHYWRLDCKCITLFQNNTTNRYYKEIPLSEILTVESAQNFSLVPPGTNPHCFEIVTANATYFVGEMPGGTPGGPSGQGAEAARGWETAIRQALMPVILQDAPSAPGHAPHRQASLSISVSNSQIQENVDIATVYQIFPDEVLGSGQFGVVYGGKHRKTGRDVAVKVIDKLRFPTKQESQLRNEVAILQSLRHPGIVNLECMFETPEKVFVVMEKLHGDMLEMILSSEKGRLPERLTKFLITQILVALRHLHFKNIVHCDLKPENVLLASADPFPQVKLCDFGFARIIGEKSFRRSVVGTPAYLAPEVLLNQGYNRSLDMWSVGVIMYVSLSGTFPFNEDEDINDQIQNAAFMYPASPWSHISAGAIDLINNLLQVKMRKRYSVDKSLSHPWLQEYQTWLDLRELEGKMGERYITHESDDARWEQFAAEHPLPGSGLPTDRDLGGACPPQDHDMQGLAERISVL
A digest of the protocol:
(§1)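 Inhibition was measured in an outsourced in vitro kinase panel using the ZLyte or Adapta format under the provider's standard procedures. Values are percent inhibition at 10 µM or 1 µM compound, and IC50s were also obtained.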

The target in experiment [2] is T2, LYN B (Homo sapiens, UniProt P07948).
T2 construct: purchased Thermo Fisher Scientific
A digest of the protocol:
as §1

Experiment [3] concerns the target T3, FER (Homo sapiens, UniProt P16591).
T3 construct: purchased Thermo Fisher Scientific
A digest of the protocol:
as §1

Experiment [4] addresses T4, PHKG1 (Homo sapiens, UniProt Q16816).
T4 construct: purchased Thermo Fisher Scientific
A digest of the protocol: as §1

Experiment [5] has as its target T5, CAMK2D (CaMKII delta) (Homo sapiens, UniProt Q13557).
T5 construct: purchased Thermo Fisher Scientific
A digest of the protocol: as §1

Experiment [6] concerns the target T6, CDK18/cyclin Y (Homo sapiens, UniProt Q07002).
T6 construct: purchased Thermo Fisher Scientific
A digest of the protocol: as §1

The target of experiment [7] is T7, ABL1 F317L (Homo sapiens, UniProt P00519, F317L).
T7 construct: purchased Thermo Fisher Scientific
A digest of the protocol: as §1

Experiment [8] deals with T8, DAPK1 (Homo sapiens, UniProt P53355).
T8 construct: purchased Thermo Fisher Scientific
A digest of the protocol:
as §1

For experiment [9], the target named is T9, PAK6 (Homo sapiens, UniProt Q9NQU5).
T9 construct: purchased Thermo Fisher Scientific
A digest of the protocol: as §1

Experiment [10] deals with T10, PRKCI (PKC iota) (Homo sapiens, UniProt P41743).
T10 construct: purchased Thermo Fisher Scientific
T10 sequence (P41743 1-596): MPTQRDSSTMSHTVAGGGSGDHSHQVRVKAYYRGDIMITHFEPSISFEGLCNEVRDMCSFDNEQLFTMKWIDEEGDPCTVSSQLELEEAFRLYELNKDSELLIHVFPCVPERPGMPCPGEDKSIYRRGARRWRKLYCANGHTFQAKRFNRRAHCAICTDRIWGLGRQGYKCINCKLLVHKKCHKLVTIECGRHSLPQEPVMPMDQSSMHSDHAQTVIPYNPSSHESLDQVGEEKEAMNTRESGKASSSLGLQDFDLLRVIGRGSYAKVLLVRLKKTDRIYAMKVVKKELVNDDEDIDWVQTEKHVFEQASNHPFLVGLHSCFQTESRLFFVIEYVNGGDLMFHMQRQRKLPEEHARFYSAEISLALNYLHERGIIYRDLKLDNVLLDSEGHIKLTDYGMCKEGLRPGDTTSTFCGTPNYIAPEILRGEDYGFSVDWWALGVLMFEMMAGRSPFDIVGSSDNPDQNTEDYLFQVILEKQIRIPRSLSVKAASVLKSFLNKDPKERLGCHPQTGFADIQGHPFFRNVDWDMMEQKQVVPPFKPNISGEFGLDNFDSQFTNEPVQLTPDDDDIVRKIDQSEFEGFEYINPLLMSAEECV
A digest of the protocol:
as §1

T2 sequence (P07948 1-491 isoform P07948-2): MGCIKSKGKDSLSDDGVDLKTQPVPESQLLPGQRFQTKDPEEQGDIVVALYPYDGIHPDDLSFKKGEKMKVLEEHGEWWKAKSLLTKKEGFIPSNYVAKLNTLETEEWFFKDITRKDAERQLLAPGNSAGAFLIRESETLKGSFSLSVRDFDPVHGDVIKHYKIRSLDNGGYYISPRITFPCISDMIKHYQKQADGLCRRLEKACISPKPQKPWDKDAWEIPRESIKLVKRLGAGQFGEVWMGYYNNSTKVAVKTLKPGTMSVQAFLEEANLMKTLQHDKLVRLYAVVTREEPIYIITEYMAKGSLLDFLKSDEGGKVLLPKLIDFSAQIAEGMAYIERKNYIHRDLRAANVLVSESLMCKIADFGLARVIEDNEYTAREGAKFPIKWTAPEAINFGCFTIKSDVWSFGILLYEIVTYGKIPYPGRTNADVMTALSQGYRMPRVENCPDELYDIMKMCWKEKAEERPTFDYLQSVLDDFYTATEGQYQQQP
T3 sequence (P16591 whole entry): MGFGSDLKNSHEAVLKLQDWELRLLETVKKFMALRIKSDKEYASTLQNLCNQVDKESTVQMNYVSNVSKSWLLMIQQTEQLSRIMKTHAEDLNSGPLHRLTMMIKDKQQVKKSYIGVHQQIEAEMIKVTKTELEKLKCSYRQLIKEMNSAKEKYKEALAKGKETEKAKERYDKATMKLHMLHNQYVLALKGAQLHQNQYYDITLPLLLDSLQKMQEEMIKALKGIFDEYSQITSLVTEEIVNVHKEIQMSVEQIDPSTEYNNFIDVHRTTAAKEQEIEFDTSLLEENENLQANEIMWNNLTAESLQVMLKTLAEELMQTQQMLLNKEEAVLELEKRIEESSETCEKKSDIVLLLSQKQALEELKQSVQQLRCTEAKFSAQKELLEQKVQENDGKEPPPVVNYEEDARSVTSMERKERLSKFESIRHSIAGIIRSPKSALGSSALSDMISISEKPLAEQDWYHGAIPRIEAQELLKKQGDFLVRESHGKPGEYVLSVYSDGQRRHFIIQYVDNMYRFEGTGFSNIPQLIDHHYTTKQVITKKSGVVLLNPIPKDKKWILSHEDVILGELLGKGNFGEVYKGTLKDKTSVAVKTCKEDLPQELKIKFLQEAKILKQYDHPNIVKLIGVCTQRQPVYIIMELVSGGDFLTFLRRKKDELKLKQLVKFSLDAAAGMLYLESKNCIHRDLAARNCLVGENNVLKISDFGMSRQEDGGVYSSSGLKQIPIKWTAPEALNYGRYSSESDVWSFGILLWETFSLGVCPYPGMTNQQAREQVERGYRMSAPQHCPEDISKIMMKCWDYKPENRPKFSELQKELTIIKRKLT
T4 sequence (Q16816 whole entry): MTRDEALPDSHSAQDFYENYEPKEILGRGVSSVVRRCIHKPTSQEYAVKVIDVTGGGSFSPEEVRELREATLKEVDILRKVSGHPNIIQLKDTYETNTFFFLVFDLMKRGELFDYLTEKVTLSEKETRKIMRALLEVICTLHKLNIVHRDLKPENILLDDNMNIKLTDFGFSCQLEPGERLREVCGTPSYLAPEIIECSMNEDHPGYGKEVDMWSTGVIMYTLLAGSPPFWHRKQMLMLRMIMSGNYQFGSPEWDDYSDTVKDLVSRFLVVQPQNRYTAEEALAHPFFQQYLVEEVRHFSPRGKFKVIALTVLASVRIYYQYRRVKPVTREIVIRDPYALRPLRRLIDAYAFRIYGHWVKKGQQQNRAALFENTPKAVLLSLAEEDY
T7 sequence (P00519 whole entry F317L): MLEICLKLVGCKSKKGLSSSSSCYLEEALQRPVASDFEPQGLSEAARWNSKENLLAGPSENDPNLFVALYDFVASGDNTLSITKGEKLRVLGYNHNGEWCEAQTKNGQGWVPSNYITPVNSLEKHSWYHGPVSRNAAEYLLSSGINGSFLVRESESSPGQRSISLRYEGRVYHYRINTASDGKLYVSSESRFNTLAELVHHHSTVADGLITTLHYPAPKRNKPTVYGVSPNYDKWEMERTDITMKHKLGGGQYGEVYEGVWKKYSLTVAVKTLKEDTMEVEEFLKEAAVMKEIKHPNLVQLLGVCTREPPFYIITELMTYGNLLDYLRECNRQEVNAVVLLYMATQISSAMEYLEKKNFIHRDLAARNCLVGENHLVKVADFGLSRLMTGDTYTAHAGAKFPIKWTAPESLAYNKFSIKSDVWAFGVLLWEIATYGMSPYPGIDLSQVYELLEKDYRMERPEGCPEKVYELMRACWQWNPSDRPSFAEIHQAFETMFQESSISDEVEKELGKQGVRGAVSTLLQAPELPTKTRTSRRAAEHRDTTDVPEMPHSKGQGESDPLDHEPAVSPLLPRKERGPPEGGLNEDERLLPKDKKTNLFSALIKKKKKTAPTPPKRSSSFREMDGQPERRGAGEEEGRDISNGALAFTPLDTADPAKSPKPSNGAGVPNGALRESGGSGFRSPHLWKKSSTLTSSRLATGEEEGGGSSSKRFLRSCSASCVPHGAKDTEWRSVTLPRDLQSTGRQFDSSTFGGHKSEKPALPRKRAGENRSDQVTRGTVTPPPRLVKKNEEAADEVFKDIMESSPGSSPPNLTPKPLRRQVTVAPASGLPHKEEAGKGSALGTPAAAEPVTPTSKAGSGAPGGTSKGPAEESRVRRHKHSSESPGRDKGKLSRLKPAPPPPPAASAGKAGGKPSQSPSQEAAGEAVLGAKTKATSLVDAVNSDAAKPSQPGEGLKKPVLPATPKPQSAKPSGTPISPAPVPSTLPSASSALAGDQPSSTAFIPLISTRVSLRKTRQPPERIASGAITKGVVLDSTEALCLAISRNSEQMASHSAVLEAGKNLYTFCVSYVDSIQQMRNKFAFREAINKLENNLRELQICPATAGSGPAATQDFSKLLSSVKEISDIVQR
T9 sequence (Q9NQU5 whole entry): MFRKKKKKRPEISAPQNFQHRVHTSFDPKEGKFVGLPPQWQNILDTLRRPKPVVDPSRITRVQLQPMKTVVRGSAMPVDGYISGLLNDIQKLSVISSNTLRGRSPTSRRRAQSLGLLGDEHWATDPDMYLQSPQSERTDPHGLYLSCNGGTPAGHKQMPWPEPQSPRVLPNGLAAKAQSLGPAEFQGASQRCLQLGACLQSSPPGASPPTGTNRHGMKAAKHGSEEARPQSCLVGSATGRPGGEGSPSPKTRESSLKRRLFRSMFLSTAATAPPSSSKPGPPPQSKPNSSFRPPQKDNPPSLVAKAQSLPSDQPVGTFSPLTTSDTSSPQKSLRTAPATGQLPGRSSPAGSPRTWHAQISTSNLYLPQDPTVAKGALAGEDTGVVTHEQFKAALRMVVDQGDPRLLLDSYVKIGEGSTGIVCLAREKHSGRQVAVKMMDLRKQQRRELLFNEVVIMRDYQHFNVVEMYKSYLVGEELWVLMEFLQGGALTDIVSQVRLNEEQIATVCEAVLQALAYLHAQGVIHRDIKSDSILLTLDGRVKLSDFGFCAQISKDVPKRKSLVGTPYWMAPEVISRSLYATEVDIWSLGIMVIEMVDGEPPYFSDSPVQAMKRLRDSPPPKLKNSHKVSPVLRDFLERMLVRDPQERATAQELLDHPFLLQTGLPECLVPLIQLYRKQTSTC
T8 sequence (P53355 whole entry): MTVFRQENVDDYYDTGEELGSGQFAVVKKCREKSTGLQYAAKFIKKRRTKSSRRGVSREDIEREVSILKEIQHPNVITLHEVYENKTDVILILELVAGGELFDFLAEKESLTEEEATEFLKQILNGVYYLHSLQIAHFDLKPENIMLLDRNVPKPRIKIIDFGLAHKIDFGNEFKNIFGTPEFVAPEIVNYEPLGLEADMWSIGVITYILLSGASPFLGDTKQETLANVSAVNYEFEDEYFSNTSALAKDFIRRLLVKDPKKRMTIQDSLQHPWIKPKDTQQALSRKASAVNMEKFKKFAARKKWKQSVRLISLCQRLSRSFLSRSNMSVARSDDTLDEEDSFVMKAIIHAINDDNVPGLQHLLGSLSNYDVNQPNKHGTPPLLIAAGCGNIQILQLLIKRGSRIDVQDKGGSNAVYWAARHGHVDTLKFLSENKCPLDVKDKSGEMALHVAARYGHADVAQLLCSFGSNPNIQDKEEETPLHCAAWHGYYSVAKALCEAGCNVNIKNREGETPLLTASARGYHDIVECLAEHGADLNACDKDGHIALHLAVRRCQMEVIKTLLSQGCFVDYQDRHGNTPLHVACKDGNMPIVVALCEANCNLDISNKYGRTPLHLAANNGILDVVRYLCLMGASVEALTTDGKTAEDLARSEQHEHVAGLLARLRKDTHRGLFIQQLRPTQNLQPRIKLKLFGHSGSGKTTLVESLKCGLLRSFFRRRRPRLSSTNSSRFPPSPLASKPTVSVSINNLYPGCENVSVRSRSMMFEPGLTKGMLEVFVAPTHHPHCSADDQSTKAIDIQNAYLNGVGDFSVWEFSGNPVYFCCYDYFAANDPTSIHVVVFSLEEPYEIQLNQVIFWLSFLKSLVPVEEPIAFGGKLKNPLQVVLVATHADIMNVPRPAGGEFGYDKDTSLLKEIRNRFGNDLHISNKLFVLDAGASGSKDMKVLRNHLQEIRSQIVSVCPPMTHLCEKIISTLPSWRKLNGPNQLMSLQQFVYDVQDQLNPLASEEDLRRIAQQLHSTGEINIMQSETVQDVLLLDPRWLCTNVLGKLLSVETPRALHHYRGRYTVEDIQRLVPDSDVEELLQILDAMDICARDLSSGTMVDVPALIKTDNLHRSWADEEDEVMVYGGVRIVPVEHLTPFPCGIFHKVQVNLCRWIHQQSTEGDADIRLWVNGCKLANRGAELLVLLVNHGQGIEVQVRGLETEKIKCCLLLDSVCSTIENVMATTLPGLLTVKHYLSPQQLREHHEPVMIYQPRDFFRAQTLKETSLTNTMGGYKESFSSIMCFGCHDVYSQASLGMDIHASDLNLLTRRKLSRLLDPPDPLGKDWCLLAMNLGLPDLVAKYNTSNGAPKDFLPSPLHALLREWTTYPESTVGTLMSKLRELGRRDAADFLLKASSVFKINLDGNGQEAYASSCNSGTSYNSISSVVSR

The inhibition is the relative decrease from the control value, in per cent. Consider `COc1ccc2c(c1OC)c(=O)n1c3ccc(O)cc3c3ccnc2c31` [MW01, 5-Hydroxy-10,11-dimethoxy-9H-benzo[c]indolo[3,2,1-ij][1,5]naphthyridin-9-one], for which the inhibition at 1 µM in [1] turned out to be 38%; in experiment [2], 6%; in [3] it was 11%; in experiment [4] it was 8%; in [5] it was 13%; in [6], 5%. Besides, the inhibition at 1 µM in [7] worked out at 8%; in [8], 8%; in experiment [9], 5%; in experiment [10], 4%. The inhibition at 10 µM in [1] turned out to be 71%; in experiment [2] it was 23%; in [3], 25%; in experiment [4], 12%; in experiment [5] it was 60%; in experiment [6], 15%. For the same compound, the inhibition at 10 µM is 13% in experiment [7], 14% in experiment [8], -10% in experiment [9] and -8% in experiment [10].
On to `COc1ccc2cc3c(N)nn(C(=O)c4cccc(N(C)C)c4)c3nc2c1` [MW05, (3-Amino-7-methoxypyrazolo[3,4-b]quinolin-1-yl)-[3-(dimethylamino)phenyl]methanone], for which the inhibition at 1 µM in [1] was 11%; in experiment [2], 6%; in [3] it was 7%; in [4] it was 3%; in [5], 3%; in experiment [6] it was 13%. Also, the inhibition at 1 µM in [7] stood at 6%; in experiment [8], 3%; in [9] it was 11%; in experiment [10], 20%. For the same compound, the inhibition at 10 µM in experiment [1] was 10%; in experiment [2], 0%; in experiment [3] it was 0%; in experiment [4], -11%; in experiment [5], 13%; in experiment [6] it was 55%. The inhibition at 10 µM in experiment [7] is 4%; in [8], 3%; in [9], 3%; in [10], 6%.
